According to ChEMBL document CHEMBL6103589, “Synthesis and evaluation of novel ebselen derivatives as urease inhibitors for combating Helicobacter pylori infections” (Eur J Med Chem, 2025):
In brackets after ≈: the same amount, converted by molar mass. Activity calls are given as the source filed them. The rule behind the calls is not given here.

Each compound was assayed against Urease subunit alpha/Urease subunit beta (Helicobacter pylori (strain ATCC 700392 / 26695) (Campylobacterpylori), UniProt P69996) (assay: Inhibition of Helicobacter pylori ATCC 43504 urease preincubated for 75 mins followed by urea addition and measured after 30 mins by ELISA). Conditions: not given.
Format: protein-complex assay

Sequence of Urease subunit alpha/Urease subunit beta (P69996 whole entry): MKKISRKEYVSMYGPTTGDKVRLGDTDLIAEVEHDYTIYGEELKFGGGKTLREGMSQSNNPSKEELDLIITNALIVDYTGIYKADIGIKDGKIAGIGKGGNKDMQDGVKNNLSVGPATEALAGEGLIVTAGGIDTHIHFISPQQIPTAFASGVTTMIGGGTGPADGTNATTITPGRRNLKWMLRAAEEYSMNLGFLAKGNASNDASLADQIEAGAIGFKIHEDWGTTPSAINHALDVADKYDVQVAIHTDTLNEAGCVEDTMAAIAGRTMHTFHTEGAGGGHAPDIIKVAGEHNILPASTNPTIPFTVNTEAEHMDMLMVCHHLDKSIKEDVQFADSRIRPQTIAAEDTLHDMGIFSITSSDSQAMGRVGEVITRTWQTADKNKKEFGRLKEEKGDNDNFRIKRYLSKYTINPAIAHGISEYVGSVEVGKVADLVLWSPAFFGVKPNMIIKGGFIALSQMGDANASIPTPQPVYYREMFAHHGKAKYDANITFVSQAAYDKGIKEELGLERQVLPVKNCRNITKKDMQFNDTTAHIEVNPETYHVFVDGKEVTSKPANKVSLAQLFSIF
Sequence of Urease subunit alpha/Urease subunit beta (P14916 whole entry, further chain): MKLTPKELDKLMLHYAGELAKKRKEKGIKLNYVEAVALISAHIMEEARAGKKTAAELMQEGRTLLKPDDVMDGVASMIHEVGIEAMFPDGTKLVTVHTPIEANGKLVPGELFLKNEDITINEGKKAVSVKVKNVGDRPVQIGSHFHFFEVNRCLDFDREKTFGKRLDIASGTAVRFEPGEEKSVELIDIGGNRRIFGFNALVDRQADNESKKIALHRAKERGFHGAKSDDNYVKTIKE

SMILES	IC50
O=C(Oc1n[se]c2ccccc12)c1ccc(F)cc1F	360 nM
O=C(c1ccc(F)cc1F)n1[se]c2ccccc2c1=O	1990 nM
O=c1c2ccccc2[se]n1-c1ccc(C(F)(F)F)cc1F	5210 nM
Cc1ccccc1C(=O)n1[se]c2ccccc2c1=O	3170 nM
O=C(Oc1n[se]c2ccccc12)c1ccc(F)cc1	340 nM
O=c1c2ccccc2[se]n1-c1ccccc1Cl	1830 nM
O=C(c1cc(F)c(F)cc1F)n1[se]c2ccccc2c1=O	3290 nM
O=C(c1ccccc1[N+](=O)[O-])n1[se]c2ccccc2c1=O	2650 nM
O=C(Oc1n[se]c2ccccc12)c1cccc(F)c1F	440 nM
O=C(Oc1n[se]c2ccccc12)c1ccccc1F	310 nM
O=C(Oc1n[se]c2ccccc12)c1cc(F)ccc1F	860 nM
O=C(c1cccc(Br)c1)n1[se]c2ccccc2c1=O	820 nM
O=C(c1ccc(F)c(F)c1)n1[se]c2ccccc2c1=O	3360 nM
O=c1c2ccccc2[se]n1-c1ccccc1 [EBSELEN]	1510 nM
O=c1c2ccccc2[se]n1-c1ccc(F)c(F)c1	3550 nM
O=c1c2ccccc2[se]n1-c1cccc(Cl)c1	2760 nM
O=C(c1cccc(F)c1)n1[se]c2ccccc2c1=O	440 nM
O=C(c1ccccc1Cl)n1[se]c2ccccc2c1=O	1460 nM
Cc1ccc(-n2[se]c3ccccc3c2=O)cc1C(F)(F)F	12100 nM
COc1ccccc1C(=O)n1[se]c2ccccc2c1=O	1100 nM
O=C(c1ccc(Cl)cc1)n1[se]c2ccccc2c1=O	1930 nM
O=C(c1c(F)cccc1F)n1[se]c2ccccc2c1=O	3620 nM
O=C(c1ccccc1F)n1[se]c2ccccc2c1=O	870 nM
COc1cccc(-n2[se]c3ccccc3c2=O)c1	6660 nM
O=c1c2ccccc2[se]n1-c1ccc(F)cc1Cl	1560 nM
O=C(c1cccc(F)c1F)n1[se]c2ccccc2c1=O	1910 nM
Cc1cccc(-n2[se]c3ccccc3c2=O)c1	3190 nM
COc1cccc(C(=O)n2[se]c3ccccc3c2=O)c1	1980 nM

SMILES	IC50
O=C(c1ccc(C(F)(F)F)cc1)n1[se]c2ccccc2c1=O	3540 nM
COc1ccc(-n2[se]c3ccccc3c2=O)cc1	7580 nM
O=C(Oc1n[se]c2ccccc12)c1c(F)cccc1F	1120 nM
O=C(c1ccc([N+](=O)[O-])cc1)n1[se]c2ccccc2c1=O	1960 nM
COC(=O)c1cccc(-n2[se]c3ccccc3c2=O)c1	4660 nM
O=C(c1cccc([N+](=O)[O-])c1)n1[se]c2ccccc2c1=O	1230 nM
CC(C)(C)c1ccc(-n2[se]c3ccccc3c2=O)cc1	15100 nM
O=C(Oc1n[se]c2ccccc12)c1ccc(F)c(F)c1F	1100 nM
O=C(c1ccc(F)c(F)c1F)n1[se]c2ccccc2c1=O	3480 nM
N#Cc1cccc(-n2[se]c3ccccc3c2=O)c1	1320 nM
O=c1c2ccccc2[se]n1-c1ccc(Cl)cc1	2520 nM
Cc1ccc(C(=O)n2[se]c3ccccc3c2=O)cc1	3750 nM
O=c1c2ccccc2[se]n1-c1c(F)cccc1Cl	1530 nM
O=c1c2ccccc2[se]n1-c1ccc(F)cc1	2420 nM
O=C(c1cccc(Cl)c1)n1[se]c2ccccc2c1=O	1310 nM
O=C(c1cc(F)ccc1F)n1[se]c2ccccc2c1=O	2980 nM
COc1ccc(C(=O)n2[se]c3ccccc3c2=O)cc1	1730 nM
O=c1c2ccccc2[se]n1-c1cccc(OC(F)(F)F)c1	7230 nM
O=C(c1cccc(C(F)(F)F)c1)n1[se]c2ccccc2c1=O	1460 nM
COC(=O)c1ccc(-n2[se]c3ccccc3c2=O)cc1	5230 nM
O=c1c2ccccc2[se]n1-c1cc(F)ccc1Cl	1340 nM
O=C(c1ccccc1Br)n1[se]c2ccccc2c1=O	1500 nM
Cc1cccc(C(=O)n2[se]c3ccccc3c2=O)c1	5410 nM
O=c1c2ccccc2[se]n1-c1ccc(OC(F)(F)F)cc1	10600 nM
O=C(c1ccc(Br)cc1)n1[se]c2ccccc2c1=O	940 nM
O=C(c1ccccc1C(F)(F)F)n1[se]c2ccccc2c1=O	3990 nM
O=C(c1ccc(F)cc1)n1[se]c2ccccc2c1=O	890 nM

These compounds were tested on Helicobacter pylori (assay: Antibacterial activity against Helicobacter pylori ATCC 43504 incubated for 24 hrs by broth dilution method). Conditions: dose 1-64 […].
Format: functional

SMILES	Activity	MIC
O=c1c2ccccc2[se]n1-c1ccccc1 [EBSELEN]	Dose-dependent-effect	32 µg/mL (≈ 117 µM)

These compounds were tested on Helicobacter pylori (assay: Antibacterial activity against Helicobacter pylori ATCC 43504 assessed as inhibition of bacterial colonies at 32 ug/mL incubated for 24 hrs by broth dilution method). Conditions: dose 32.0 µg/ml.
Format: functional, organism-based

SMILES	Activity
O=c1c2ccccc2[se]n1-c1ccccc1 [EBSELEN]	Active
